The source of these data is PMC11126801 (The Journal of Biological Chemistry, 2024).

In series [1] the target is T1, HCN3 (Homo sapiens, UniProt Q9P1Z3).
T1 sequence (Q9P1Z3 1-774): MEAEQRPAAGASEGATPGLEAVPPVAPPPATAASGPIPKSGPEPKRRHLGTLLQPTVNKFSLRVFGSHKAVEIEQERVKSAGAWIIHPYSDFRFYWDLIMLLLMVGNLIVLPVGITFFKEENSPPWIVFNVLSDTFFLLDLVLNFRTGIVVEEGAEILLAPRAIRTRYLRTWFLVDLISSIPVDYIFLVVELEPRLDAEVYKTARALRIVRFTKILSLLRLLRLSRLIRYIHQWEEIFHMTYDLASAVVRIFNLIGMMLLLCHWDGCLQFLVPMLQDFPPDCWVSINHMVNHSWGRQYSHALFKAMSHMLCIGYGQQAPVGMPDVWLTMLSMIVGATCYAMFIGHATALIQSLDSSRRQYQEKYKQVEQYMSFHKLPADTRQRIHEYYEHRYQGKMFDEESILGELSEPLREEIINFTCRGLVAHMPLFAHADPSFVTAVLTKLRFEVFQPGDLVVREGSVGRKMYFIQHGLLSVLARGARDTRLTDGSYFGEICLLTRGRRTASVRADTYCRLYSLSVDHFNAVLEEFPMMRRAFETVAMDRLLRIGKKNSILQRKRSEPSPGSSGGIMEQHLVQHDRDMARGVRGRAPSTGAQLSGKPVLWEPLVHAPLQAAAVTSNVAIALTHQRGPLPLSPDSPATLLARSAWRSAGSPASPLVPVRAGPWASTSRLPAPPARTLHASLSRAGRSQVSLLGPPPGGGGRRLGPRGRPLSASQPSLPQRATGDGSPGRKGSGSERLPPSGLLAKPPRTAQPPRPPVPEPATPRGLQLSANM
Description: cryo-EM structure of the apo channel ([…] Å) with CHS density; IC50 by whole-cell patch clamp. It is filed as cell-based.

Series [2] addresses T1, HCN3. The series is described as follows: whole-cell patch clamp of HCN3 currents in transfected HeLa cells. It is filed as cell-based. Further details: human HCN3 (WT) expressed in HeLa cells.
Series [3] deals with the molecule itself. The series is described as follows: cryo-EM structure; single-particle cryo-EM of MBP-HCN3 in 0.1% digitonin, 300 mM KCl, 2 mM DTT, 20 mM Tris pH 8.0; ligand-free sample and sample with 5 mM cAMP; final refinement in C4 symmetry.

In series [1], `CC(C)CCC[C@@H](C)[C@H]1CC[C@H]2[C@@H]3CC=C4C[C@@H](OC(=O)CCC(=O)O)CC[C@]4(C)[C@H]3CC[C@]12C` [cholesteryl hemisuccinate] had an IC50 of 1450 µM.

In series [2], `CC(C)CCC[C@@H](C)[C@H]1CC[C@H]2[C@@H]3CC=C4C[C@@H](O)CC[C@]4(C)[C@H]3CC[C@]12C` [cholesterol] displayed an IC50 of 480 µM.

B1: full-length wild-type human HCN3 with its N terminus fused to maltose-binding protein (MBP) (natural protein, UniProt Q9P1Z3 1-774, looked up)
chain: T1 sequence (Q9P1Z3 1-774)
notes: the tag was not cleaved for the structures; Modelled residues: 50-151, 156-191, 210-476, 484-543 (apo); also 477-483 with cAMP; also called HCN3 channel; apo-HCN3; source: HEK293S cells, BacMam transduction, purified (MBP beads, Superose 6 SEC, digitonin); not shown: MBP, N-terminal, kept
In the case of B1, the “stoichiometry N” value in series [3] was determined as 4.
